Assay results published in patent publication US12522602B2, “Derivatives having 2,3-dihydro-1H-indene or 2,3-dihydrobenzofuran moiety or pharmaceutically acceptable salt thereof and pharmaceutical compositions comprising the same” (YUHAN CORPORATION, priority 2019, dated 2026).

Each compound was assayed on GM1 production in Jurkat cells (assay: cells). Conditions: Homo sapiens, Jurkat, 72 h.
Format: cell-based

| SMILES | IC50 [nM] |
| --- | --- |
| CC1(C)Cc2cc(-c3coc4ccccc34)ccc2C1NC(=O)O[C@@H]1CN2CCC1CC2 (stereo partly drawn) [Example 157, (S)-quinuclidin-3-yl (5-(benzofuran-3-yl)-2,2-dimethyl-2,3-dihydro-1H-inden-1-yl)carbamate] | 2.8 |
| CC1(C)Cc2ccc(-c3cc(F)cc(F)c3)cc2C1NC(=O)O[C@@H]1CN2CCC1CC2 (stereo partly drawn) [Example 66, (S)-quinuclidin-3-yl (6-(3,5-difluorophenyl)-2,2-dimethyl-2,3-dihydro-1H-inden-1-yl)carbamate] | 128 |
| COc1cccc(-c2cc3c(cc2F)C(NC(=O)O[C@@H]2CN4CCC2CC4)C(C)(C)C3)c1 (stereo partly drawn) [Example 375, (S)-quinuclidin-3-yl (6-fluoro-5-(3-methoxyphenyl)-2,2-dimethyl-2,3-dihydro-1H-inden-1-yl)carbamate] | 23 |
| COc1cc(OC)cc(-c2cc3c(cc2OC)C(NC(=O)O[C@@H]2CN4CCC2CC4)C(C)(C)C3)c1 (stereo partly drawn) [Example 345, (S)-quinuclidin-3-yl (5-(3,5-dimethoxyphenyl)-6-methoxy-2,2-dimethyl-2,3-dihydro-1H-inden-1-yl)carbamate] | 45.7 |
| O=C(NC1CCc2ccc(-c3ccc(OC(F)(F)F)cc3)cc21)O[C@@H]1CN2CCC1CC2 (stereo partly drawn) [Example 28, (S)-quinuclidin-3-yl (6-(4-(trifluoromethoxy)phenyl)-2,3-dihydro-1H-inden-1-yl)carbamate] | 52 |
| CC1(C)Cc2ccc(-c3ccc(F)cc3)cc2C1NC(=O)O[C@@H]1CN2CCC1CC2 (stereo partly drawn) [Example 49, (S)-quinuclidin-3-yl (6-(4-fluorophenyl)-2,2-dimethyl-2,3-dihydro-1H-inden-1-yl)carbamate] | 61.4 |
| CCC1(CC)Cc2cc(-c3ccc(CC(C)C)cc3)ccc2C1NC(=O)O[C@@H]1CN2CCC1CC2 (stereo partly drawn) [Example 287, (S)-quinuclidin-3-yl (2,2-diethyl-5-(4-isobutylphenyl)-2,3-dihydro-1H-inden-1-yl)carbamate] | 4.1 |
| COc1cc(F)c(-c2ccc3c(c2)CC(C)(C)C3NC(=O)O[C@@H]2CN3CCC2CC3)cc1F (stereo partly drawn) [Example 171, (S)-quinuclidin-3-yl (5-(2,5-difluoro-4-methoxyphenyl)-2,2-dimethyl-2,3-dihydro-1H-inden-1-yl)carbamate] | 17 |
| CCc1ccc(/C=C/c2ccc3c(c2)CC(C)(C)C3NC(=O)O[C@@H]2CN3CCC2CC3)cc1 (stereo partly drawn) [Example 274, (S)-quinuclidin-3-yl (5-((E)-4-ethylstyryl)-2,2-dimethyl-2,3-dihydro-1H-inden-1-yl)carbamate] | 10.3 |
| CC(=O)c1sccc1-c1ccc2c(c1)CC(C)(C)C2NC(=O)O[C@@H]1CN2CCC1CC2 (stereo partly drawn) [Example 272, (S)-quinuclidin-3-yl (5-(2-acetylthiophen-3-yl)-2,2-dimethyl-2,3-dihydro-1H-inden-1-yl)carbamate] | 49.3 |
| COc1ccc(C(F)(F)F)cc1-c1ccc2c(c1)CC(C)(C)C2NC(=O)O[C@@H]1CN2CCC1CC2 (stereo partly drawn) [Example 251, (S)-quinuclidin-3-yl (5-(2-methoxy-5-(trifluoromethyl)phenyl)-2,2-dimethyl-2,3-dihydro-1H-inden-1-yl)carbamate] | 7.2 |
| O=C(NC1CCc2ccc(-c3cccc(F)c3)cc21)O[C@@H]1CN2CCC1CC2 (stereo partly drawn) [Example 29, (S)-quinuclidin-3-yl (6-(3-fluorophenyl)-2,3-dihydro-1H-inden-1-yl)carbamate] | 63 |
| O=C(NC1CCc2cc(-c3ccc(OC(F)(F)F)cc3)ccc21)O[C@@H]1CN2CCC1CC2 (stereo partly drawn) [Example 4, (S)-quinuclidin-3-yl (5-(4-(trifluoromethoxy)phenyl)-2,3-dihydro-1H-inden-1-yl)carbamate] | 95.8 |
| O=C(NC1CCc2cc(-c3ccc(F)c(F)c3)ccc21)O[C@@H]1CN2CCC1CC2 (stereo partly drawn) [Example 15, (S)-quinuclidin-3-yl (5-(3,4-difluorophenyl)-2,3-dihydro-1H-inden-1-yl)carbamate] | 34.4 |
| O=C(NC1CCc2ccc(-c3ccc(F)c(F)c3)cc21)O[C@@H]1CN2CCC1CC2 (stereo partly drawn) [Example 39, (S)-quinuclidin-3-yl (6-(3,4-difluorophenyl)-2,3-dihydro-1H-inden-1-yl)carbamate] | 51.9 |
| Cc1ccc(-c2ccc3c(c2)CC(C)(C)C3NC(=O)O[C@@H]2CN3CCC2CC3)cc1F (stereo partly drawn) [Example 215, (S)-quinuclidin-3-yl (5-(3-fluoro-4-methylphenyl)-2,2-dimethyl-2,3-dihydro-1H-inden-1-yl)carbamate] | 14.9 |
| CN1CCOc2cc(-c3ccc4c(c3)CC(C)(C)C4NC(=O)O[C@@H]3CN4CCC3CC4)ccc21 (stereo partly drawn) [Example 120, (S)-quinuclidin-3-yl (2,2-dimethyl-5-(4-methyl-3,4-dihydro-2H-benzo[b][1,4]oxazin-7-yl)-2,3-dihydro-1H-inden-1-yl)carbamate] | 28.4 |
| CCCOc1cccc(-c2cc3c(cc2OC)C(NC(=O)O[C@@H]2CN4CCC2CC4)C(C)(C)C3)c1 (stereo partly drawn) [Example 340, (S)-quinuclidin-3-yl (6-methoxy-2,2-dimethyl-5-(3-propoxyphenyl)-2,3-dihydro-1H-inden-1-yl)carbamate] | 43.8 |

| SMILES | IC50 [nM] |
| --- | --- |
| CCOc1ccc(-c2ccc3c(c2)CC(C)(C)C3NC(=O)O[C@@H]2CN3CCC2CC3)cc1 (stereo partly drawn) [Example 160, (S)-quinuclidin-3-yl (5-(4-ethoxyphenyl)-2,2-dimethyl-2,3-dihydro-1H-inden-1-yl)carbamate] | 22.7 |
| CCCc1ccc(-c2cc3c(cc2F)C(NC(=O)O[C@@H]2CN4CCC2CC4)C(C)(C)C3)cc1 (stereo partly drawn) [Example 350, (S)-quinuclidin-3-yl (6-fluoro-2,2-dimethyl-5-(4-propylphenyl)-2,3-dihydro-1H-inden-1-yl)carbamate] | 4.5 |
| CC1(C)Cc2cc(-c3cccc(F)c3F)ccc2C1NC(=O)O[C@@H]1CN2CCC1CC2 (stereo partly drawn) [Example 91, (S)-quinuclidin-3-yl (5-(2,3-difluorophenyl)-2,2-dimethyl-2,3-dihydro-1H-inden-1-yl)carbamate] | 25.1 |
| CCC1(CC)Cc2cc(-c3cccc(C(F)F)c3)ccc2C1NC(=O)O[C@@H]1CN2CCC1CC2 (stereo partly drawn) [Example 301, (S)-quinuclidin-3-yl (5-(3-(difluoromethyl)phenyl)-2,2-diethyl-2,3-dihydro-1H-inden-1-yl)carbamate] | 9.6 |
| CCC1(CC)Cc2cc(-c3cccc(C(C)C)c3)ccc2C1NC(=O)O[C@@H]1CN2CCC1CC2 (stereo partly drawn) [Example 293, (S)-quinuclidin-3-yl (2,2-diethyl-5-(3-isopropylphenyl)-2,3-dihydro-1H-inden-1-yl)carbamate] | 8.7 |
| COc1cc(OC)cc(-c2ccc3c(c2)CC(C)(C)C3NC(=O)O[C@@H]2CN3CCC2CC3)c1 (stereo partly drawn) [Example 169, (S)-quinuclidin-3-yl (5-(3,5-dimethoxyphenyl)-2,2-dimethyl-2,3-dihydro-1H-inden-1-yl)carbamate] | 9.8 |
| COc1cccc(-c2cc3c(cc2OC)C(NC(=O)O[C@@H]2CN4CCC2CC4)C(C)(C)C3)c1 (stereo partly drawn) [Example 338, (S)-quinuclidin-3-yl (6-methoxy-5-(3-methoxyphenyl)-2,2-dimethyl-2,3-dihydro-1H-inden-1-yl)carbamate] | 53.7 |
| CCC1(CC)Cc2cc(-c3cc(OC)ccc3OC)ccc2C1NC(=O)O[C@@H]1CN2CCC1CC2 (stereo partly drawn) [Example 297, (S)-quinuclidin-3-yl (5-(2,5-dimethoxyphenyl)-2,2-diethyl-2,3-dihydro-1H-inden-1-yl)carbamate] | 3 |
| CC(C)(C)c1ccc(-c2ccc3c(c2)CC(C)(C)C3NC(=O)O[C@@H]2CN3CCC2CC3)cc1 (stereo partly drawn) [Example 146, (S)-quinuclidin-3-yl (5-(4-(tert-butyl)phenyl)-2,2-dimethyl-2,3-dihydro-1H-inden-1-yl)carbamate] | 14.1 |
| CCc1cccc(-c2cc3c(cc2OC)C(NC(=O)O[C@@H]2CN4CCC2CC4)C(C)(C)C3)c1 (stereo partly drawn) [Example 334, (S)-quinuclidin-3-yl (5-(3-ethylphenyl)-6-methoxy-2,2-dimethyl-2,3-dihydro-1H-inden-1-yl)carbamate] | 20.9 |
| CC1(C)Cc2cc(-c3ccc(N4CCOCC4)cc3)ccc2C1NC(=O)O[C@@H]1CN2CCC1CC2 (stereo partly drawn) [Example 148, (S)-quinuclidin-3-yl (2,2-dimethyl-5-(4-morpholinophenyl)-2,3-dihydro-1H-inden-1-yl)carbamate] | 30 |
| CC1(C)Cc2ccc(-c3cc(F)ccc3F)cc2C1NC(=O)O[C@@H]1CN2CCC1CC2 (stereo partly drawn) [Example 65, (S)-quinuclidin-3-yl (6-(2,5-difluorophenyl)-2,2-dimethyl-2,3-dihydro-1H-inden-1-yl)carbamate] | 56.2 |
| COc1ccc(C(C)C)cc1-c1ccc2c(c1)CC(C)(C)C2NC(=O)O[C@@H]1CN2CCC1CC2 (stereo partly drawn) [Example 232, (S)-quinuclidin-3-yl (5-(5-isopropyl-2-methoxyphenyl)-2,2-dimethyl-2,3-dihydro-1H-inden-1-yl)carbamate] | 12.5 |
| CC1(C)Cc2cc(-c3cc(Cl)cc(Cl)c3)ccc2C1NC(=O)O[C@@H]1CN2CCC1CC2 (stereo partly drawn) [Example 94, (S)-quinuclidin-3-yl (5-(3,5-dichlorophenyl)-2,2-dimethyl-2,3-dihydro-1H-inden-1-yl)carbamate] | 23.6 |
| CCCCc1ccc(-c2ccc3c(c2)CC(CC)(CC)C3NC(=O)O[C@@H]2CN3CCC2CC3)cc1 (stereo partly drawn) [Example 280, (S)-quinuclidin-3-yl (5-(4-butylphenyl)-2,2-diethyl-2,3-dihydro-1H-inden-1-yl)carbamate] | 1.6 |
| O=C(NC1CCc2ccc(-c3ccc(OC(F)F)cc3)cc21)O[C@@H]1CN2CCC1CC2 (stereo partly drawn) [Example 37, (S)-quinuclidin-3-yl (6-(4-(difluoromethoxy)phenyl)-2,3-dihydro-1H-inden-1-yl)carbamate] | 55.2 |
| CC1(C)Cc2cc(-c3ccc(OCCN4CCOCC4)cc3)ccc2C1NC(=O)O[C@@H]1CN2CCC1CC2 (stereo partly drawn) [Example 117, (S)-quinuclidin-3-yl (2,2-dimethyl-5-(4-(2-morpholinoethoxy)phenyl)-2,3-dihydro-1H-inden-1-yl)carbamate] | 41.8 |
| CC1(C)Oc2cc(-c3cccc(OC(F)(F)F)c3)ccc2C1NC(=O)O[C@@H]1CN2CCC1CC2 (stereo partly drawn) [Example 410, (S)-quinuclidin-3-yl (2,2-dimethyl-6-(3-(trifluoromethoxy)phenyl)-2,3-dihydrobenzofuran-3-yl)carbamate] | 13 |
